In patent publication US10150737B2, “Compounds for controlling arthropods” (priority 2013, dated 2018):

What was measured:
[1] = logP determination by HPLC on a reversed-phase column (C18); type: physicochemical; settings: for log P: HPLC-MS, reversed-phase column (C18), Table I-T3; for logP: HPLC, C18 reversed phase, acetonitrile/water with formic acid, EEC Directive 79/831 Annex V.A8
Myzus persicae = Myzus persicae - spray test; type: in vivo; settings: Chinese cabbage leaf discs, after 6 days
How it was run: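 Mortality of the green peach aphid, as % killed, was read 6 days after spraying infested Brassica pekinensis leaf discs. Compound formulated in acetone/dimethylformamide and made up with emulsifier-containing (1000 ppm) water.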

Phaedon cochleariae = Phaedon cochleariae - spray test; type: in vivo; settings: application rate 500 g/ha; larvae on Chinese cabbage leaf discs; after 7 days
How it was run: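 Mortality of mustard beetle larvae was scored as % at day 7 on Brassica pekinensis leaf discs. Discs had been treated by spraying at the desired concentration, using an acetone/dimethylformamide solution diluted in water with 1000 ppm alkylaryl polyglycol ether, and dried before larvae were added.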

Meloidogyne incognita = Meloidogyne incognita test; type: in vivo; settings: application rate 20 ppm; lettuce; after 14 days
Procedure: Solvent: 125.0 parts by weight of acetone
To produce an appropriate active ingredient formulation, 1 part by weight of active ingredient is mixed with the stated amount of solvent and the concentrate is diluted with water to the desired concentration.
Vessels are filled with sand, active ingredient solution, an egg/larvae suspension of the southern root-knot nematode (Meloidogyne incognita) and lettuce seeds. The lettuce seeds germinate and the plants develop. The galls develop on the roots.
After 14 days, the nematicidal efficacy in % is determined by the formation of galls. 100% means that no galls were found; 0% means that the number of galls on the treated plants corresponds to the untreated control.

Tetranychus urticae = Tetranychus urticae - spray test, OP-resistant; type: in vivo; settings: application rate 500 g/ha; bean leaf discs; after 6 days
How it was run: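 Mortality (%) read on day 6 after spraying Phaseolus vulgaris leaf discs carrying all mite stages with formulations at the desired concentration. Formulation: active ingredient in acetone plus dimethylformamide, made up with emulsifier-containing water (1000 ppm alkylaryl polyglycol ether).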

Spodoptera frugiperda = Spodoptera frugiperda - spray test; type: in vivo; settings: application rate 500 g/ha; caterpillars on maize leaf discs; after 7 days
How it was run: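 Percent mortality of Spodoptera frugiperda caterpillars scored 7 days after placing them on dried maize leaf discs sprayed at the desired concentration. Spray formulation: compound dissolved in acetone/dimethylformamide, made up with water containing 1000 ppm emulsifier.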

[2] = tested on: Aedes aegypti strain MONHEIM; test: Aedes test (AEDSAE surface treatment); type: in vivo; settings: read-out: efficacy (mortality)
Procedure: (§1) Solvent: acetone+2000 ppm rapeseed oil methyl ester (RME)
(§2) To produce an appropriate active ingredient formulation, the active ingredient is dissolved in the solvent (2 mg/ml). The active ingredient formulation is pipetted onto a glazed tile and, after it has dried off, adult mosquitoes of the species Aedes aegypti strain MONHEIM are placed onto the treated tile. The exposure time is 30 minutes.
(§3) 24 hours after contact with the treated surface, mortality in % is determined. 100% means that all mosquitoes have been killed; 0% means that none of the mosquitoes have been killed.

Ctenocephalides felis = Ctenocephalides felis - in vitro contact tests with adult cat fleas; type: in vivo; settings: application rate 5 μg/cm2 (=500 g/ha); after 48 h; fleas dead or moribund
How it was run: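 Efficacy, as percentage of fleas dead or moribund, was scored at 48 h by knocking fleas to the tube base. Exposure was by contact with a dried acetone film of compound at 5 μg/cm^2 area dose; 5–10 adults per tube, room temperature, ambient humidity.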

[3] = tested on: Anopheles gamhiae strain RSPH (homozygot kdr); test: Anopheles test (ANPHGB surface treatment); type: in vivo; settings: read-out: efficacy (mortality)
Procedure: as §1
as §2, with “Anopheles gamhiae” for “Aedes aegypti”, “RSPH (homozygot kdr)” for “MONHEIM”
as §3

Rhipicephalus sanguineus = Rhipicephalus sanguineus - in vitro contact tests with adult brown dog ticks; type: in vivo; settings: application rate 5 μg/cm2; after 48 h; ticks dead or moribund
How it was run: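 Efficacy, scored after 48 h, is the % of adult ticks dead or moribund, i.e. unable to climb away on a 45-50° C hotplate within 5 min. Tubes held 5-10 ticks in the dark at room temperature, on an acetone-applied coating of 5 μg/cm^2 (900 ppm solution).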

Boophilus microplus = Boophilus microplus - injection test; type: in vivo; settings: Rhipicephalus microplus, 168 h; application rate 20 μg/animal; injection into engorged adult female ticks; after 7 days; read-out: efficacy (laying of fertile eggs)
How it was run: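 Five engorged adult female cattle ticks each received a 1 μl abdominal injection of compound solution in dimethyl sulphoxide. Fertile egg laying was assessed at 7 days, with doubtful eggs incubated about 42 days until hatch. 0% efficacy means all eggs fertile.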

Musca domestica = Musca domestica test; type: in vivo; settings: application rate 100 ppm; adult houseflies; after 2 days
How it was run: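 First, 10 mg compound was taken up in 0.5 ml DMSO and then brought with water to the required concentration. This was applied with sugar solution to a sponge in vessels holding 10 adult flies; kill was assessed after 2 days.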

[4] = tested on: Anopheles funestus strain FUMOZ-R; test: Anopheles test (ANPHFU surface treatment); type: in vivo; settings: read-out: efficacy (mortality)
Procedure: as §1
as §2, with “Anopheles funestus” for “Aedes aegypti”, “FUMOZ-R (Hunt et al., Med Vet Entomol. 2005 September; 19 (3):271-5)” for “MONHEIM”
as §3

[5] = tested on: Boophilus microplus Parkhurst strain, SP-resistant; test: Boophilus microplus - dip test; type: in vivo; settings: application rate 100 ppm; dip of engorged adult female ticks; after 7 days
How it was run: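 Compound dissolved in DMSO, diluted with water, and used to fully wet groups of 8-10 engorged female cattle ticks (SP-resistant Parkhurst strain). Fertile egg laying assessed at 7 days, doubtful eggs held ~42 days until hatch; 0% means all eggs fertile.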

Amblyomma hebraeum = test: Amblyomma hebaraeum test (tick nymphs, immersion); type: in vivo; settings: application rate 100 ppm; tick nymphs immersed one minute; after 42 days
How it was run: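 Mortality (%) is read 42 days post-treatment, where 0% means no ticks and 100% all ticks killed. Nymphs were dipped for 1 min into the test dilution (DMSO stock diluted with water) and afterwards stored on filter paper under controlled climate.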

O=C(NC1CC1)c1cc(-c2cnn(-c3c(Cl)cc(C(F)(F)F)c(F)c3Cl)c2)ccc1Cl [I-T3-184]
log P [1]: 3.6
efficacy (Myzus persicae; application rate 100 g/ha): 100%
efficacy (Phaedon cochleariae): 100%
nematicidal efficacy (formation of galls) (Meloidogyne incognita): 90%
efficacy (Tetranychus urticae): 100%
efficacy (Spodoptera frugiperda): 100%

N#CC1(NC(=O)c2cc(-c3cnn(-c4c(Cl)cc(C(F)(F)F)c(F)c4Cl)c3)ccc2Cl)CC1 [I-T3-185]
log P [1]: 3.6
efficacy (Myzus persicae; application rate 500 g/ha): 100%
efficacy (Phaedon cochleariae): 100%
nematicidal efficacy (formation of galls) (Meloidogyne incognita): 90%
efficacy (Tetranychus urticae): 100%
efficacy (Spodoptera frugiperda): 100%

Cc1cc(C(F)(C(F)(F)F)C(F)(F)F)cc(C)c1-c1cc(-c2ccc(Cl)c(C(=O)NC3CC3)c2)on1 [I-T22-1, 2-chloro-N-cyclopropyl-5-[3-[2,6-dimethyl-4-[1,2,2,2-tetrafluoro-1-(trifluoromethyl)ethyl]phenyl]isoxazol-5-yl]benzamide]
mortality at 20 mg/m2 [2]: 90 to 100%
mortality at 100 mg/m2 [2]: 90 to 100%
efficacy (Ctenocephalides felis): 100%
mortality at 100 mg/m2 [3]: 90 to 100%
logP [1]: 4.8
efficacy (Rhipicephalus sanguineus): 100%
pest or weed control at 0.02 mg (Boophilus microplus): 100%
efficacy (Myzus persicae; application rate 100 g/ha): 100%
efficacy (kill) (Musca domestica): 100%
mortality at 20 mg/m2 [4]: 90 to 100%
mortality at 100 mg/m2 [4]: 90 to 100%
efficacy (laying of fertile eggs) [5]: 100%
efficacy (kill) (Amblyomma hebraeum): 100%

O=C(NC1CC1)c1cc(-c2cc(-c3c(Cl)cc(C(F)(C(F)(F)F)C(F)(F)F)cc3Cl)on2)ccc1Cl [I-T23-1, 2-chloro-N-cyclopropyl-5-[5-[2,6-dichloro-4-[1,2,2,2-tetrafluoro-1-(trifluoromethyl)ethyl]phenyl]isoxazol-3-yl]benzamide]
mortality at 20 mg/m2 [2]: 90 to 100%
mortality at 100 mg/m2 [2]: 90 to 100%
efficacy (Ctenocephalides felis): 100%
logP [1]: 5.0
pest or weed control at 0.02 mg (Boophilus microplus): 100%
efficacy (kill) (Musca domestica): 100%
mortality at 20 mg/m2 [4]: 90 to 100%
efficacy (laying of fertile eggs) [5]: 100%
efficacy (kill) (Amblyomma hebraeum): 100%
